# From patent US8034778B2, “Neuroprotective compounds and uses thereof” (Ever Neuro Pharma GmbH, priority 2006, dated 2011)
# Where two headings read alike, the source gives them in different places. Residues, ends and D or L forms follow the SMILES beside them. No end group written: not given here.
# Test system: telencephalon neurons from 9-day-old chicken embryos (cortical neurons)
# Type: cell-based
# Method: 1.1.2. Assay Conditions: • Assay: 2% low serum cell culture assay • Cell source: telencephalon neurons from 9-day-old chicken embryos (Lohman Brown hybrid) • Nutrition medium: EMEM with 1 g glucose/l, 2% FCS, 0.01% gentamycin sulfate and 2 mM L-glutamine • Group size: 4 independent experiments were performed (n =8 for DLHW (SEQ ID NO:2), NIVTPR (SEQ ID NO:3), HGFLPR (SEQ ID NO:4), NMVPFPR (SEQ ID NO:5) and the test matrix) • Evaluation of the effects: • MTT viability assay; absorbance (OD) measured with a plate reader • Duration of one single experiment: • 8 days
# (§1) 2.2.1.1. Test Item (DLHW) (SEQ ID NO:2): • Vehicle for dilution: test matrix (6.18 mg/ml NaCl and 0.35 mg/ml KCl) • Application mode: once at the 1st day • Application period: for the whole experiment, i.e. 8 days, from 1st day onwards • Concentrations: 5.6, 11.25, 22.5, 45, 90, 180, 360 and 720 μg/ml • Administration volume: 0.625, 1.25, 2.5, 5, 10, 20, 40, 80 μl/ml medium
# as §1, with “2.2.1.2.” for “2.2.1.1.”, “(NIVTPR)” for “(DLHW)”, “NO:3):” for “NO:2):”
# as §1, with “2.2.1.3.” for “2.2.1.1.”, “(HGFLPR)” for “(DLHW)”, “NO:4):” for “NO:2):”
# as §1, with “2.2.1.4.” for “2.2.1.1.”, “(NMPFPR)” for “(DLHW)”, “NO:5):” for “NO:2):”
# 2.3. Assay Conditions • Cell culture assays: 2% low serum assay • Cell source: telencephalon neurons from 9-day-old chicken embryos (Lohman Brown hybrid) • Nutrition medium: EMEM with 1 g glucose/l, 2% FCS, 0.01% gentamycin sulfate and 2mM L-glutamine • Group size: 4 independent experiments were performed (n =8for DLHW (SEQ ID NO:2) ant and the test matrix; n =224 for controls) • Evaluation of the effects: MTT viability assay; absorbance (OD) measured with a plate reader • Duration of one single experiment: 8 days
# The analytical procedure used in the present example is a 2% low serum assay using isolated avian cortical neurons. With this in vitro cell culture assay the neuroprotective and/or neurotrophic potential of compounds can be evaluated by determining the viability of living neurons after a distinct time period in culture. The method for measuring the amount of viable neurons is the MTT-assay.
# To the isolated nerve cells the peptides or test matrix were added once, i.e. at the first day. The 8 concentrations comprising dose range was between 5.6, 11.25, 22.5, 45, 90, 180, 360 and 720 μg/ml medium; the volumes applied were 0.625, 1.25, 2.5, 5, 10, 20, 40, 80 μl/ml medium.
# Neuronal viability of cultures was determined with the MTT-assay using a plate-reader (570 nm). The MTT-assay is a sensitive assay measuring the mitochondrial dehydrogenase activity in viable cells only. It is performed according to the method described by Mosmann, J. Immunol. Meth, 1983, 55-63. This assay is based on the reduction of yellow MTT (3-(4,5-dimethylthiazol-2-yl)-2,5,diphenyl tetrazolium bromide), to dark blue formazan crystals by mitochondrial dehydrogenases (succinate dehydrogenase). Since this reaction is catalysed in living cells only the assay can be used for the quantification of cell viability. […]
# [1] = 5.6 μg/ml, added at 1DIV, 8 days
# [2] = 11.25 μg/ml, added at 1DIV, 8 days
# [3] = 22.5 μg/ml, added at 1DIV, 8 days
# [4] = 45 μg/ml, added at 1DIV, 8 days
# [5] = 90 μg/ml, added at 1DIV, 8 days
# [6] = 180 μg/ml, added at 1DIV, 8 days
# [7] = 360 μg/ml, added at 1DIV, 8 days
# [8] = 720 μg/ml, added at 1DIV, 8 days
# [9] = Lohman Brown hybrid, chicken, 8 days, 5.6 μg/ml
# [10] = Lohman Brown hybrid, chicken, 8 days, 11.25 μg/ml
# [11] = Lohman Brown hybrid, chicken, 8 days, 22.5 μg/ml
# [12] = Lohman Brown hybrid, chicken, 8 days, 45 μg/ml
# [13] = Lohman Brown hybrid, chicken, 8 days, 90 μg/ml
# [14] = Lohman Brown hybrid, chicken, 8 days, 180 μg/ml
# [15] = Lohman Brown hybrid, chicken, 8 days, 360 μg/ml
# [16] = Lohman Brown hybrid, chicken, 8 days, 720 μg/ml
Compound,"viability of cortical neurons, MTT, mean optical density (OD) [1] [OD]","viability of cortical neurons, MTT, mean optical density (OD) [2] [OD]","viability of cortical neurons, MTT, mean optical density (OD) [3] [OD]","viability of cortical neurons, MTT, mean optical density (OD) [4] [OD]","viability of cortical neurons, MTT, mean optical density (OD) [5] [OD]","viability of cortical neurons, MTT, mean optical density (OD) [6] [OD]","viability of cortical neurons, MTT, mean optical density (OD) [7] [OD]","viability of cortical neurons, MTT, mean optical density (OD) [8] [OD]","viability of cortical neurons, mean in % (control is 100%) [9] [%]","viability of cortical neurons, mean in % (control is 100%) [10] [%]","viability of cortical neurons, mean in % (control is 100%) [11] [%]","viability of cortical neurons, mean in % (control is 100%) [12] [%]","viability of cortical neurons, mean in % (control is 100%) [13] [%]","viability of cortical neurons, mean in % (control is 100%) [14] [%]","viability of cortical neurons, mean in % (control is 100%) [15] [%]","viability of cortical neurons, mean in % (control is 100%) [16] [%]",also measured
HGFLPR [HGFLPR],0.068,0.069,0.069,0.067,0.070,0.067,0.064,0.058,100.07,101.16,101.16,98.95,102.25,99.14,94.53,85.71,
NIVTPR [NIVTPR],0.068,0.069,0.068,0.068,0.066,0.064,0.060,0.058,98.92,100.32,98.70,98.75,95.12,92.28,86.60,83.13,
CC(C)C[C@H](NC(=O)[C@@H](N)CC(=O)O)C(=O)N[C@@H](Cc1c[nH]cn1)C(=O)N[C@@H](Cc1c[nH]c2ccccc12)C(=O)O [DLHW] (H-DLHW-OH; N-terminus and C-terminus assumed),0.062,0.062,0.085,0.136,0.217,0.272,0.254,0.257,97.85,97.68,134.51,213.12,341.82,429.54,401.23,406.75,"maximum effect (viability, control 100%) [15]: 430%; effect beyond control (added at 1DIV, MTT method): 430%; effective dose range (added at 1DIV, MTT method): 45 to 702 µg/mL; maximum effect in % (added at 1DIV, MTT method): 430%; most effectice concentration (added at 1DIV, MTT method): 180 µg/mL; effect above the control level (in higher concentrations (than that of the maximum effect)): ~300%"
NMVPFPR [NMVPFPR],0.061,0.060,0.057,0.057,0.056,0.055,0.055,0.057,98.06,95.77,90.76,90.55,89.54,87.76,87.79,91.24,
